These results are taken from patent US20070254312A1, “Protein Kinase Inhibitors and Methods for Identiying Same” (priority 2004, published 2007).

Experiment [1] concerns the target T1, PKCα (Homo sapiens, UniProt P17252). Put plainly: Protein Kinase Cα radioactive assay, peptide substrate Ac-Ser-Phe-Arg-Arg-Arg-NH2 (Example 1). Further details: purchased Pan Vera. The settings on record: peptide substrate; read-out: PKCα inhibitory potency IC50. The format is biochemical. The procedure: Protein Kinase C Assay (general). The peptides […] (for PKC α, β and γ) and acetyl-[…] (for PKC ε and ζ) were used as substrates. […] Total reaction volume was 50 μL. […] Following an additional 5 min incubation at ambient temperature, 75 μL from each reaction well was transferred into each well of a Unifilter (P81 cellulose phosphate paper) assay plate and washed four times with 0.1% phosphoric acid in water. […] IC50 values were calculated using GraFit (Erithacus Software Limited) and Ki values were calculated using Enzyme Kinetics, SigmaPlot (SPSS Inc.) […] An analogous protocol was employed for peptide 4 versus variable [[…]]. […] An analogous protocol was employed for peptide 4 versus variable [ATP]. Protein Kinase Cα Assay (Ki determination for peptide 6 versus variable […] substrate). […] The reaction was initiated as described above. […] Following an additional 5 min incubation at ambient temperature, 75 μL from each reaction well was transferred into each well of a Unifilter (P81 cellulose phosphate paper) assay plate and washed four times with 0.1% phosphoric acid in water. […] IC50 values were calculated using GraFit (Erithacus Software Limited) and Ki values were calculated using Enzyme Kinetics, SigmaPlot (SPSS Inc.)

Experiment [2] deals with T1, PKCα. The settings on record: cited from earlier work.
The target in another experiment is PKC β1 (Homo sapiens, UniProt P05771). The note with it: cited from earlier work.
PKC β1, sequence (P05771 whole entry): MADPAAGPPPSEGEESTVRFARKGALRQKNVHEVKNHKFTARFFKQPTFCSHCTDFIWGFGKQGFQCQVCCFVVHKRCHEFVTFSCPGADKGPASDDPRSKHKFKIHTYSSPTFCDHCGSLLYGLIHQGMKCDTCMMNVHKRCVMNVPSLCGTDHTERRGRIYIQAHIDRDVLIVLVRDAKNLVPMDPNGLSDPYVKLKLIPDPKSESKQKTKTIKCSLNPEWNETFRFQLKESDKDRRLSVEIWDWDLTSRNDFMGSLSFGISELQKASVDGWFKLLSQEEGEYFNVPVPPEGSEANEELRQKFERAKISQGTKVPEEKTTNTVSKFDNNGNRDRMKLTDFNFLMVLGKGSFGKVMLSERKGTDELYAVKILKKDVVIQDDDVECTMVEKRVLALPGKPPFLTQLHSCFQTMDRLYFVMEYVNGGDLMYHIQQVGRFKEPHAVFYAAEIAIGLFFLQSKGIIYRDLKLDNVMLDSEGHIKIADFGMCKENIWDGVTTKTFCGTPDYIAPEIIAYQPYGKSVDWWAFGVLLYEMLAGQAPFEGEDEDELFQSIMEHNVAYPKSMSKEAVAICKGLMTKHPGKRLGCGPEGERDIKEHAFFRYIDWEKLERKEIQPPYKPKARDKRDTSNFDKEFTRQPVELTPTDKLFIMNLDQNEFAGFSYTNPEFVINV
The next experiment has as its target PKCγ (Homo sapiens, UniProt P05129). Further details: purchased Panvera. The settings on record: cited from earlier work.
The target in a further experiment is PKCδ (Homo sapiens, UniProt Q05655). Further details: purchased Panvera. The note with it: literature values; relative to most potently inhibited isoform (=1); cited from earlier work.
PKCδ, sequence (Q05655 whole entry, canonical isoform): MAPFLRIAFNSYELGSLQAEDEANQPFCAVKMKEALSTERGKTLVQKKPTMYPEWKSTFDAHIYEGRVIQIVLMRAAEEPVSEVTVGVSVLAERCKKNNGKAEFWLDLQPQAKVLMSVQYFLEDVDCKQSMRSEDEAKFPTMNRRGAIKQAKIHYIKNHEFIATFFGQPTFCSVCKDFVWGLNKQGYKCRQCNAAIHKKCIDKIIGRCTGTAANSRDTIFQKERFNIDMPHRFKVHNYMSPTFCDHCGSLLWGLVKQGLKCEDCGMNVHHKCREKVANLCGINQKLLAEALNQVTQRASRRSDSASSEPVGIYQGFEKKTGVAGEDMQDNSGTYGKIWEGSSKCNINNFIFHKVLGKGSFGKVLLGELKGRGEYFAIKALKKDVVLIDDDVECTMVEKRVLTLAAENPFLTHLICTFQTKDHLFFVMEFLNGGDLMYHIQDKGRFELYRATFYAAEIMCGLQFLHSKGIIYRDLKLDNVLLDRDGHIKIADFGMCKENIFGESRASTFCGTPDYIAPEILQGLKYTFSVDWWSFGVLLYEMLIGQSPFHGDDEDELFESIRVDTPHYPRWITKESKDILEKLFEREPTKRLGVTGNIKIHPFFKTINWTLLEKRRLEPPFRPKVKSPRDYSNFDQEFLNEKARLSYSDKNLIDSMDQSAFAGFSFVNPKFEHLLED
The target of the next experiment is T2, PKCε (Homo sapiens, UniProt Q02156).
T2 sequence (Q02156 1-737): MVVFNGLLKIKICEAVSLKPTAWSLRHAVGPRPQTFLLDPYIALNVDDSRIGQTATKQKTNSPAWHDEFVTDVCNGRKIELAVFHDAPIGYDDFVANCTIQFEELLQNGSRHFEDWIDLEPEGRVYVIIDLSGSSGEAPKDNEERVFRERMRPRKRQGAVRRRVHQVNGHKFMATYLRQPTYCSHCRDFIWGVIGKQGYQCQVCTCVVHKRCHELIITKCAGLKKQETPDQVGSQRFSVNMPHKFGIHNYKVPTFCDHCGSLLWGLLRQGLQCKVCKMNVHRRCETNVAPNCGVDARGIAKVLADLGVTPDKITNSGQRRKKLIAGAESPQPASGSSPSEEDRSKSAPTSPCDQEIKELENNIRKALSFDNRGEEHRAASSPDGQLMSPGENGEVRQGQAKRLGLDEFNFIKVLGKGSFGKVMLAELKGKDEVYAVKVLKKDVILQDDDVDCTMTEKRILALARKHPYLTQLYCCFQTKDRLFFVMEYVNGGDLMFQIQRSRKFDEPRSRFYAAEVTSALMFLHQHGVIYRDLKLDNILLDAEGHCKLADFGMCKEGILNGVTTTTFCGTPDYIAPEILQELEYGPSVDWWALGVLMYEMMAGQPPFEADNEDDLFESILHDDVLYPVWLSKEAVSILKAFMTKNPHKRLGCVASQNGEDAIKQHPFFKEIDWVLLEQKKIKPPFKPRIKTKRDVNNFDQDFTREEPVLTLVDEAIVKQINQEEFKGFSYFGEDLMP
Further details: purchased Panvera. The settings on record: cited from earlier work.

In the next experiment the target is PKCη (Homo sapiens, UniProt P24723). Further details: purchased Panvera. The note with it: cited from earlier work.
PKCη, sequence (P24723 whole entry): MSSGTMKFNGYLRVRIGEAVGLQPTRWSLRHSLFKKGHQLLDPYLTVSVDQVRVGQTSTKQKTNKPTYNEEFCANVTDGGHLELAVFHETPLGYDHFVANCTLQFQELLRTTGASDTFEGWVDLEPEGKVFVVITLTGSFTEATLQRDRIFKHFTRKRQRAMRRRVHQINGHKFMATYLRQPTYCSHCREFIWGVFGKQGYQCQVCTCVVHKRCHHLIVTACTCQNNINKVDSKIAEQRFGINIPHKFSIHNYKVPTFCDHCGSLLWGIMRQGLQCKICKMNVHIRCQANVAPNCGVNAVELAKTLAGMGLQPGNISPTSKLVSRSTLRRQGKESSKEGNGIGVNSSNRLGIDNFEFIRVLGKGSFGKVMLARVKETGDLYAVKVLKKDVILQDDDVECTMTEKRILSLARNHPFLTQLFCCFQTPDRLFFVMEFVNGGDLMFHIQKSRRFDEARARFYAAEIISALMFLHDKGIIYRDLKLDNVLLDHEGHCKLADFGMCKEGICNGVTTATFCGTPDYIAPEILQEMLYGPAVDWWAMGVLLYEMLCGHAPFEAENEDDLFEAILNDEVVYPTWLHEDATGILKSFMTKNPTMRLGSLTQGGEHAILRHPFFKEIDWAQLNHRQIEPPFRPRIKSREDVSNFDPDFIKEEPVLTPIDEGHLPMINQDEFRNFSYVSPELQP
The target in a further experiment is T3, PKCζ (Homo sapiens, UniProt Q05513).
T3 sequence (Q05513 1-592): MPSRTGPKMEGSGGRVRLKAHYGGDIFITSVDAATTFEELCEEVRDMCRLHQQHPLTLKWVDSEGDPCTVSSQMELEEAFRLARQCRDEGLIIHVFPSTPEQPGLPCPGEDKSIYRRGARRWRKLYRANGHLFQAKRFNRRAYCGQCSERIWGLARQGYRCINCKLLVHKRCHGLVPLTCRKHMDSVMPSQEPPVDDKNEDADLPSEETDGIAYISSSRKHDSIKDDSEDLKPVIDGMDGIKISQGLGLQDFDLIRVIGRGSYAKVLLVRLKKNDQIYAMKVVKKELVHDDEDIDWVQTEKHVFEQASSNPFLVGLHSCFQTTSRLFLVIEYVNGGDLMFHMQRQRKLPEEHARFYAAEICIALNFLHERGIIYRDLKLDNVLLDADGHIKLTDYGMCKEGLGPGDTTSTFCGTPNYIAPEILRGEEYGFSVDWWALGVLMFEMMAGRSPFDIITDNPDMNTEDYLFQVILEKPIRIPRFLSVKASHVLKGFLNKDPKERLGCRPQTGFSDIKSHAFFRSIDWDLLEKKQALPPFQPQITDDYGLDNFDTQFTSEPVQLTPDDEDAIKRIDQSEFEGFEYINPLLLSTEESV
Further details: purchased Panvera. The settings on record: cited from earlier work.

Read-outs that look alike come from different tables or passages of the source. Starred links: 1 amine or outer side, 2 acyl side, 3 side chain; linkers in the order of their positions; H or OH if unused. Non-standard residues stand in square brackets, D forms with d. Residues, ends and D or L forms follow the SMILES beside them. *: point of attachment. Benzoyl(4-(pyrrol-1-yl)) = O=C(c1ccc(-n2cccc2)cc1)*; Cysteamide = C(CS[*:3])N[*:1]; Dap = NC[C@H](N)C(=O)O

Usually IC50 stands for the concentration at which inhibition is half-maximal. For `CC(=O)N[C@@H](C)C(=O)N[C@@H](CCCNC(=N)N)C(=O)N[C@@H](CCCNC(=N)N)C(=O)NCC(=O)N[C@@H](CNC(=O)c1ccc(-n2cccc2)cc1)C(=O)N[C@@H](CC(C)C)C(=O)N[C@@H](CCCNC(=N)N)C(=O)N[C@@H](CCC(N)=O)C(=O)N[C@@H](C)C(=O)NCCS` [Compound 2] (Ac-ARRG[Dap](Benzoyl(4-(pyrrol-1-yl)))LRQA-Cysteamide), the IC50 at PKCα [1] was found to be 5.7 ± 0.4 µM.
Take `CC(=O)c1c(O)c(C)c(O)c(Cc2c(O)c3c(c(C(=O)/C=C/c4ccccc4)c2O)OC(C)(C)C=C3)c1O` [Rottlerin, rottlerin]: the “Fold selectivity (IC50), PKC α” value at PKCα [2] was 10 fold. Also, the figures for the “Fold selectivity (IC50), PKC β1” value at PKC β1 and at PKC β1 (listed as rottlerin) were 14 fold and 10 fold, respectively. Also, at PKCγ, the “Fold selectivity (IC50), PKC γ” value is recorded as 13 fold. For the same compound, the “Fold selectivity (IC50), PKC δ” value at PKCδ is 1 fold. Also, at PKCε, the “Fold selectivity (IC50), PKC ε” value is reported as 33 fold. Moreover, the “Fold selectivity (IC50), PKC η” value at PKCη is 27 fold. Also, on PKCζ, the “Fold selectivity (IC50), PKC ζ” value is 33 fold.
